System: MMP-1 mRNA in monocytes
Assay: MMP-1 mRNA in monocytes, semiquantitative RT-PCR
Type: cell-based, human
Conditions: FIG. 2C
Description: Plasmin activity assay. Plasmin activity was determined with the SPECTROZYME PL kit (American Diagnostica Inc., Stamford, Conn.) which utilizes the chromogenic substrate H-D-norleucyl-hexahydrotyrosol-lysine-para-nitroanilide diacetate. For detection of cell-associated plasmin activity, monocytes were cultured at 1×10^6/well in Hanks Balanced Solution containing calcium and magnesium (Hyclone, Logan, Utah) with the plasmin substrate. Kinetic absorbance readings were measured at 405 nm. RT-PCR. Total cellular RNA was extracted with the RNeasy Mini Kit (QIAGEN® Inc., Valencia, Calif.) 8 hours after stimulation of monocytes with LPS. Transcript levels of MMP-1 were determined using semiquantitative reverse transcriptase-polymerase chain reaction (RT-PCR) with GADPH as an internal control. […] The amplified DNA was separated by 1.7% agarose gel electrophoresis, stained with SYTO 60 red fluorescent nucleic acid stain (Molecular Probes®, Eugene, Oreg.), and the intensity of the stained bands was analyzed with an infrared imaging system. […] FITC-conjugated BSA, plasmin (2.5 μg in 10 μl) or anti-human antibodies (1-2.5 μg/10 μl) then were added, respectively, incubated for 30 min and washed and analyzed by the FACSCalibur system (Becton Dickinson Biosciences, Franklin Lakes, N.J.). […] Flow cytometry results were analyzed by CELLQuest software (Becton Dickinson Biosciences, Franklin Lakes, N.J.). […]

plasmin
MMP-1 mRNA level (LPS-stimulated monocytes, 8 hours): dose-dependent increase | induction of MMP-1 mRNA (control (unstimulated) monocytes): did not induce MMP-1
